{
  "source": "patent EP0497921B1",
  "about": "“METHOD FOR INHIBITING ENZYMATIC SYNTHESIS OF NUCLEIC ACIDS USING ISOPSORALENS” (ISAACS, Stephen T., priority 1989, dated 1991)",
  "target": "Taq polymerase (Thermus aquaticus, UniProt P19821)",
  "sequence (P19821 whole entry)": "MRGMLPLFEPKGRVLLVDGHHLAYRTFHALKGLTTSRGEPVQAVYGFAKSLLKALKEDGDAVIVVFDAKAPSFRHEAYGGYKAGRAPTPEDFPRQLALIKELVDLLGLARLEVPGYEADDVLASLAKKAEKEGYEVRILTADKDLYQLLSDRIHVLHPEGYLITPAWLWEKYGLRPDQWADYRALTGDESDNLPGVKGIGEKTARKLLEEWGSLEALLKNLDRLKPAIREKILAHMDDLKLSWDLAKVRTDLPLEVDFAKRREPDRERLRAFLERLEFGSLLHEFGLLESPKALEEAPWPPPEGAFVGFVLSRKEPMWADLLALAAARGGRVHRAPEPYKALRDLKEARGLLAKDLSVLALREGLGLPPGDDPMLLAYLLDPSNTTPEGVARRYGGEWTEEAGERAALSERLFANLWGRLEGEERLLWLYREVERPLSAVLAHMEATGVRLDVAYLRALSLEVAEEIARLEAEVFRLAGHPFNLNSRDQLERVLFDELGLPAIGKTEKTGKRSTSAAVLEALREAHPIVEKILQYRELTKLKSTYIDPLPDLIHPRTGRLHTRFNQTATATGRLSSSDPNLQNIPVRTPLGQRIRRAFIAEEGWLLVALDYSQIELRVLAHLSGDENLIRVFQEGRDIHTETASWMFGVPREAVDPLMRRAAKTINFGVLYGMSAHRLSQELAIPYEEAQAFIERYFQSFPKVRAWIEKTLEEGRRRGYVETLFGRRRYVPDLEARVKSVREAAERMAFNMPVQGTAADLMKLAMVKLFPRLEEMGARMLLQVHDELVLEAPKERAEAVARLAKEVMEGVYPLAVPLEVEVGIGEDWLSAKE",
  "test": "Primer extension on 71-mer after random addition of compound or addition of photoproduct",
  "format": "biochemical",
  "conditions": "for extension products, irradiated samples: 71-mer irradiated 15 minutes on CE-I at 25°C with AMIP (200 µg/ml), AMDMIP (200 µg/ml) or MIP (60 µg/ml), extension 5 minutes at 55°C",
  "from_the_text": "In this experiment, the ability of AMIP, AMDMIP and MIP to block replication of 71-mer is investigated by randomly adding each compound to the 71-mer. of course, addition may only be random in the sense that one or more adducts may be formed with any one strand of nucleic acid. The actual placement of the isopsoralen may be governed by preferential binding at particular sites (e.g. A:T). In addition to blockage by random adducts, photoproducts of the various isopsoralens may be providing an inhibitory effect. No attempt to separate the effects of photoproduct from the effects of covalent adducts on the 71-mer template was made in this series of experiments.\nIn these experiments, the 71-mer template (10^-9 M) was primed with ^32P-SK-39 (10^-8) and extended with Taq polymerase in a total volume of 20 µl. The dNTP concentration was 200 µM. In the control samples, the 71-mer, the primer, and the dNTPs were mixed in Taq buffer in a volume of 18 µl. These samples were initially denatured at 95°C for 5 minutes, followed by equilibration at 550C for 3 minutes. Taq enzyme was then added (0.5 units) and the extension reaction was carried out for 5 minutes at 55°C. The reaction was stopped by making the solution 10 mM in EDTA. In another set of samples, the 71-mer in 10 µl was mixed with either AMIP (200 µg/ml), AMDMIP (200 µg/ml), or MIP (60 µg/ml). Half of these samples were irradiated for 15 minutes on the CE-I device at 25°C. The other half was kept in the dark as controls. These samples were then mixed with the primer and dNTPs as before, and were subjected to the same thermal profile and extension reactions as the samples that were described earlier. The results were examined by PAGE. The extended product bands were identified by autoradiography, excised and counted (data not shown).\nIn this experiment, the ability of two different Phenylazide derivatives (see Table 1), photobiotin (Vector Labs) and monoazide ethidium chloride, to block replication of 71-mer was investigated by randomly adding each compound to the 71-mer. Again, addition may only be random in the sense that one or more adducts may be formed with any one strand of nucleic acid. The actual placement of these compounds may be governed by preferential binding at particular sites (e.g. A:T). In addition to blockage by random adducts, there may be inhibition by photoproducts. As in Example 23, no attempt was made to separate the impact of photoproducts from that of covalent binding of photoreactive compound on the 71-mer.\nThe two compounds, photobiotin and monoazide ethidium chloride, have different spectral characteristics. To activate these compounds, two different wavelength regions were selected using a single light source (General Electric Sunlamp, Model RSM, 275 watt). The light source was positioned 10 cm above uncapped Eppendorph tubes which contained samples to be irradiated. The samples were kept on ice during irradiation. A pyrex dish was placed between the lamp and the samples.\nFor samples containing photobiotin, 2.5 cm of water was added to the pyrex dish to help remove some of the infrared radiation. The samples were irradiated for 15 minutes.\nFor samples containing monoazide ethidium chloride, wavelengths less than 400 nm were filtered out by using 2.5 cm of an aqueous solution of 2.9 M NaNO2. Removal of short wavelengths (i.e. wavelengths shorter than 400 nm) is necessary for the use of monoazide ethidium chloride. Irradiation of this compound with shorter wavelengths results in conversion to non-active forms (data not shown). Wavelengths below 400 nm are therefore undesirable for use with this compound.\nIn this experiment, the 71-mer template (2 x 10^-9 M) in 10 µl was mixed with either no photoreactive compound, photobiotin (6 x 10^-6 M), or monoazide ethidium (1.4 x 10^-3 M). Half of each of these samples were irradiated on ice for 15 minutes with wavelengths appropriate for each specific photoreactive compound. […]",
  "data": [
    {"compound": "4'-Aminomethyl-4,5'-dimethylisopsoralen [AMDMIP]", "values": [
      {"measurement": "extension products, 71-mer irradiated in the presence of AMDMIP", "setting": "200 µg/ml AMDMIP, CE-I device at 25°C", "value": "no extension products at all"},
      {"measurement": "extension products, irradiated samples", "value": "not extended at all"},
      {"measurement": "extension products, dark controls", "setting": "unirradiated AMDMIP added to unirradiated 71-mer", "value": "full length extension product"}
    ]},
    {"compound": "5-Aminomethylisopsoralen [AMIP]", "values": [
      {"measurement": "extension products, irradiated samples", "value": "not extended at all"}
    ]},
    {"compound": "Cc1cc2occc2c2oc(=O)ccc12", "note": "[MIP, 5-Methylisopsoralen]", "values": [
      {"measurement": "extension products, irradiated samples", "value": "some full length extension product and a minor truncated product"},
      {"measurement": "amount of full length product relative to the control samples", "setting": "irradiated MIP (60 µg/ml)", "value": "half"}
    ]}
  ]
}
